Assay results as given in article PMC11410929, “Biochemical and crystallographic studies of L,D-transpeptidase 2 from Mycobacterium tuberculosis with its natural monomer substrate” (Communications Biology, 2024).
Like-named read-outs stand apart in the source and are kept apart here. *1 amine or outer side, *2 acyl side, *3 side chain or, on linkers, in order; H or OH if unused. Where a SMILES comes first, the peptide text is derived from it. [ ]: non-standard residue; d: D form. d(γGlu) = O=C(O)[C@@H](CCC(=O)[*:2])N[*:1]

Experiments:
LdtMt2 [1] = molecular target: T1, LdtMt2 (Mycobacterium tuberculosis, UniProt I6Y9J2); conditions: thiol-reactive fluorescent probe assay; quadruplicate; ref 6,7 (supplement); cited from earlier work
T1 sequence (I6Y9J2 56-408): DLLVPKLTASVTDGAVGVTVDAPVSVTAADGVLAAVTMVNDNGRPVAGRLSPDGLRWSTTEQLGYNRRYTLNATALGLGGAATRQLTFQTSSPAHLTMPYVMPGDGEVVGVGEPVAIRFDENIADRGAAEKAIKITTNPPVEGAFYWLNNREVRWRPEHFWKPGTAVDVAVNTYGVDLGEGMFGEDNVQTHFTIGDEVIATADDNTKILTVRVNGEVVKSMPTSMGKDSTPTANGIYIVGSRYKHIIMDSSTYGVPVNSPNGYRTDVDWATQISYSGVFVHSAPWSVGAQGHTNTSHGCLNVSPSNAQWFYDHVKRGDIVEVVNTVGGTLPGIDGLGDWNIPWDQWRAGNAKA

LdtMt2 [2] = molecular target: T1, LdtMt2; experiment: biochemical; assay type: biochemical
DAAO and HRP = experiment: Transpeptidase interference assay (no LdtMt2, D-Ala as substrate); assay type: biochemical; conditions: for Transpeptidase interference assay pIC50 (mean ± SD): DAAO 2 U/mL, HRP 2 U/mL, FAD 40 µM, Amplex red 10 µM, 30 min rt, then D-alanine 500 nM, pH 8.0, quadruplicate
Method: The transpeptidase interference assay was performed as described above, with the modification that the LdtMt2 mixture was replaced by 5 µL assay buffer, and the substrate was replaced by D-Ala (500 nM final concentration). Data were analysed using Prism 10 (GraphPad).
Figure S14. Dose-response curves of the transpeptidase interference assay with compounds
14-24. The specified inhibitors were incubated with DAAO (2 U/mL), HRP (2 U/mL), FAD (40 μM) and
Amplex red (10 μM) in 50 mM sodium phosphate pH 8.0 with 100 mM NaCl at room temperature for 30
minutes, after which time D-alanine (500 nM) was added. The pIC50 values and compound structures
See Methods for experimental details. Individual data points are shown.

LdtMt2 [3] = molecular target: T1, LdtMt2; experiment: biochemical; assay type: binding; conditions: for ΔTm at 500 µM: pH 7.5, read-out: Shift in melting temperature compared to unmodified LdtMt2, 500 µM; for ΔTm at 1000 µM: pH 7.5, read-out: Shift in melting temperature compared to unmodified LdtMt2, 1 mM; for Shift in melting temperature compared to unmodified LdtMt2, 500 µM / Shift in melting temperature compared to unmodified LdtMt2, 1 mM / Tm 500 µM / Tm 1 mM: pH 7.5
Method: Differential scanning fluorometric thermal shift assays[32]
LdtMt2 (5 µM) was incubated with peptidoglycan fragments (500 µM or 1 mM) in buffer (50 mM tris pH 7.5) for 30 minutes at room temperature, after which time SYPRO Orange (final concentration 6x, according to manufacturer’s definition, Invitrogen) was added. Melting temperatures […]
See Methods for experimental details.
Table S1. […] The melting

LdtMt2 [4] = molecular target: T1, LdtMt2; conditions: pH 8
LdtMt2 [5] = molecular target: T1, LdtMt2; assay type: biochemical; conditions: pH 7.5
LdtMt2 [6] = molecular target: T1, LdtMt2; conditions: pH 7.5
LdtMt2 [7] = molecular target: T1, LdtMt2; conditions: cited from earlier work
[8] = LdtMt2 500 nM, 30 min preincubation rt, substrate 1 35 µM, pH 8.0, 37 °C, n=3, read-out: pIC50, LdtMt2 inhibition by non-substrate peptidoglycan fragments (converted)

Molecule: C[C@@H](O)[C@H]1C(=O)N2C(C(=O)O)=C(S[C@@H]3CN[C@H](C(=O)N(C)C)C3)[C@H](C)[C@H]12 [Compound 14, Meropenem]
- Fluorogenic probe assay pIC50 (mean ± SD) (LdtMt2 [1]): 5.9 ± 0.04
- IC50 (LdtMt2 [2]; LdtMt2 500 nM, 30 min preincubation rt, substrate 1 35 µM, 50 mM sodium phosphate pH 8.0, 100 mM NaCl, 37 °C, quadruplicate, read-out: Transpeptidase activity assay pIC50 (mean ± SD) (converted)): 0.631 µM
- Transpeptidase interference assay pIC50 (mean ± SD) (DAAO and HRP): < 4.0

Molecule: C[C@H](N)C(=O)N[C@H](CCC(=O)N[C@@H](CCC[C@@H](N)C(=O)O)C(=O)O)C(=O)O [Compound 12, reference compound]
- ΔTm at 500 µM (LdtMt2 [3]): 0.5 °C
- ΔTm at 1000 µM (LdtMt2 [3]): 1 °C

Molecule: GlcNAc-MurNAc-L-Ala-D-iGluNH2-m-DAPNH2-D-Ala [Compound 1]
- Shift in melting temperature compared to unmodified LdtMt2, 500 µM (LdtMt2 [3]): +1.5 °C
- Shift in melting temperature compared to unmodified LdtMt2, 1 mM (LdtMt2 [3]): +2.0 °C
- Tm 500 µM (LdtMt2 [3]): 45 °C
- Tm 1 mM (LdtMt2 [3]): 45.5 °C
- Reaction rate (LdtMt2 [4]): 120.0 ± 1.7 RFU min^−1
- Vmax (LdtMt2 [4]): Ambiguous
- LdtMt2 turnover / transpeptidase product formation (LC-MS) (LdtMt2 [5]): led to formation of products
- Covalent adducts of LdtMt2 (SPE-MS) (LdtMt2 [6]): no covalent adducts of LdtMt2 were observed

Molecule: O=c1c2ccccc2[se]n1-c1ccccc1 [Compound 24, Ebselen]
- Fluorogenic probe assay pIC50 (mean ± SD) (LdtMt2 [1]): 6.7 ± 0.04
- Transpeptidase activity assay pIC50 (mean ± SD) (LdtMt2 [2]; LdtMt2 500 nM, 30 min preincubation rt, substrate 1 35 µM, 50 mM sodium phosphate pH 8.0, 100 mM NaCl, 37 °C, quadruplicate): 6.8 ± 0.2
- Transpeptidase interference assay pIC50 (mean ± SD) (DAAO and HRP): 5.0 ± 0.4
- Interference with the DAAO/HRP assay (DAAO and HRP; inhibition of DAAO and HRP, in words): cause interference

Molecule: GlcNAc-muramitol-L-Ala-D-iGluNH2-m-DAPNH2-D-Ala-D-Ala [reduced pentapeptide monomer of Mtb]
- LdtMt2 substrate or not (LdtMt2 [7]): is not an LdtMt2 substrate

Molecule: L-Ala-D-iGluNH2-L-Lys-D-Ala [Compound 11]
- LdtMt2 turnover / transpeptidase product formation (LC-MS) (LdtMt2 [5]): is not a substrate for LdtMt2

Molecule: C[C@H](N)C(=O)N[C@H](CCC(=O)N[C@@H](CCCCN)C(=O)N[C@H](C)C(=O)O)C(=O)O [Compound 10, L-Ala-D-iGlu-L-Lys-D-Ala, reference compound] (H-A[d(γGlu)]K[dA]-OH)
- ΔTm at 500 µM (LdtMt2 [3]): 1.5 °C
- ΔTm at 1000 µM (LdtMt2 [3]): 3 °C
- IC50 (LdtMt2 [2]; [8]): 15.8 µM

Molecule: N[C@H](CCC[C@H](NC(=O)CC[C@@H](N)C(=O)O)C(=O)O)C(=O)O [Compound 13, D-γ-Glu-m-DAP, reference compound]
- ΔTm at 500 µM (LdtMt2 [3]): 1 °C
- ΔTm at 1000 µM (LdtMt2 [3]): 1.5 °C

Molecule: C[C@H](N)C(=O)N[C@H](CCC(=O)N[C@@H](CCCCN)C(=O)N[C@H](C)C(=O)N[C@H](C)C(=O)O)C(=O)O [Compound 8, L-Ala-D-iGlu-L-Lys-D-Ala-D-Ala, reference compound]
- ΔTm at 500 µM (LdtMt2 [3]): 1.5 °C
- ΔTm at 1000 µM (LdtMt2 [3]): 2 °C
- IC50 (LdtMt2 [2]; [8]): 15.8 µM

Molecule: lactoyl-L-Ala-D-iGluNH2-m-DAPNH2-D-Ala [Compound 3]
- Shift in melting temperature compared to unmodified LdtMt2, 500 µM (LdtMt2 [3]): +1.5 °C
- Shift in melting temperature compared to unmodified LdtMt2, 1 mM (LdtMt2 [3]): +2.0 °C
- Tm 500 µM (LdtMt2 [3]): 45 °C
- Tm 1 mM (LdtMt2 [3]): 45.5 °C
- Km (LdtMt2 [4]): 6.2 mM
- Reaction rate (LdtMt2 [4]): 224.2 ± 2.6 RFU min^−1
- Vmax (LdtMt2 [4]): 1.4 ± 0.5
- kcat (LdtMt2 [4]): 2.6 ± 0.9
- kcat/KM (LdtMt2 [4]): 0.07 M⁻¹ s⁻¹
- kcat/Km (LdtMt2 [4]): 0.07 M⁻¹ s⁻¹
- LdtMt2 turnover / transpeptidase product formation (LC-MS) (LdtMt2 [5]): led to formation of products
- Covalent adducts of LdtMt2 (SPE-MS) (LdtMt2 [6]): no covalent adducts of LdtMt2 were observed

Molecule: GlcNAc-Muramitol-L-Ala-D-iGluNH2-m-DAPNH2-D-Ala [Compound 2]
- LdtMt2 turnover / transpeptidase product formation (LC-MS) (LdtMt2 [5]): led to formation of products

Molecule: GlcNAc-MurNAc-L-Ala-D-iGluNH2-m-DAPNH2-D-Ala-D-Ala [Compound 4]
- Shift in melting temperature compared to unmodified LdtMt2, 1 mM (LdtMt2 [3]): +2.5 °C
- Tm 500 µM (LdtMt2 [3]): 45.5 °C
- Tm 1 mM (LdtMt2 [3]): 46 °C
- LdtMt2 turnover / transpeptidase product formation (LC-MS) (LdtMt2 [5]): did not manifest evidence for reaction
- LdtMt2 inhibition by non-substrate peptidoglycan fragments, in words (LdtMt2 [2]; pH 8): modest LdtMt2 inhibition

Molecule: C[C@@H](O)[C@H]1C(=O)N2C(C(=O)O)=C([C@H]3CCCO3)S[C@H]12 [Compound 15, Faropenem]
- Transpeptidase interference assay pIC50 (mean ± SD) (DAAO and HRP): < 4.0
